According to patent publication US20070155955A1, “Amylin aggregation inhibitors and use thereof” (APPLIED RESEARCH SYSTEMS ARS HOLDING N.V., priority 2003, published 2007):
No end group written: not given here.

Experiment: In vitro peptide solubility assay (qualitative, pellet after centrifugation)
Assay type: physicochemical
Settings: Tris buffer, pH 7.4; read-out: Solubilty
Procedure: Solubility of peptides of the invention was obtained using a qualitative assay where the peptide was dissolved in Tris buffer, pH 7.4 at 1, 5, or 10 mg/ml, vortexed briefly, and then centrifuged at 16,000 g for 30 min.

Substance | solubility
Ac-DFGAPL-NH2 (N-terminus and C-terminus assumed) [SEQ ID NO. 3] | > 10000 µg/mL
DFGAPL [SEQ ID NO. 2] | > 10000 µg/mL
NFGAILS [SEQ ID NO. 10] | < 200 µg/mL
NFGAPLS [SEQ ID NO. 11] | < 1000 µg/mL
DFGAILD [SEQ ID NO. 12] | ≥ 2000 µg/mL
DFGAPLD [SEQ ID NO. 4] | > 10000 µg/mL
